Data taken from patent US20190225650A1, “PEPTIDOMIMETIC MACROCYCLES AND USE THEREOF IN REGULATING HIF1ALPHA” (AILERON THERAPEUTICS, INC., priority 2013, published 2019).
Bridge positions count the residues as written; N and C are the ends. Square brackets hold non-standard residues; d marks the D form. Peptide text beside a SMILES is read from it. R8 = C=CCCCCCC[C@@](C)(N)C(=O)O; S5 = C=CCCC[C@](C)(N)C(=O)O; Nle = CCCC[C@H](N)C(=O)O

Legend:
[1] = tested on: HRE-bla ME-180 cells; assay: Cell proliferation assay (viability, MTT, 1% FBS); assay type: cell-based, human
Description: The human cervical cell line HRE-Bla ME-180 was obtained from Invitrogen. 2×10^4 ME-180 cells were plated in 96-well plates (costar) in Opti-MEM plus 1% FBS (Invitrogen). After 4 hr, cells were pretreated with chetomin, peptide or 0.5% DMSO (final concentration in media) vehicle control for 16 hr under normoxia (21% O2); then incubation continued under normoxia or hypoxia (1% O2) using a hypoxia incubator (Thermo Forma model). Viable cell numbers were quantified using CellTiter 96 Non-Radioactive Cell Proliferation kit (Promega, G4100). The results are presented in the column “Viability 1% FBS AVG (MTT V3-24 hr Normoxia) (μM)” of Table 6.

[2] = tested on: HRE-bla ME-180 cells; assay: Reporter gene assay (HRE-bla ME-180 HIF reporter, GeneBLAzer); assay type: cell-based, human; details: for EC50: 24 hour normoxia
How it was run: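 A FRET β-lactamase readout of HIF transcription was used. After compound treatment in 0.3% DMSO/media under normoxic conditions, 20 μl of 6× LiveBLAzer-FRET B/G (CCF4-AM) substrate was added. Plates sat 3 hr at room temperature in the dark and were read at 409 Ex/460Em and 409Ex/530Em on a Synergy 2. Inhibition was compared against DMSO vehicle controls, with chetomin as positive control.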

[3] = biological target: T1, flag-tagged HIF1α (AA 786-826) / His6-tagged p300 (AA 323-423) complex (Homo sapiens, UniProt Q09472); assay: HIF1α p300 displacement assay (TR FRET, +CHAPS); assay type: binding; details: read-out: IC50 (nM) (HIF1α_p300 Displacement + CHAPS)
T1 construct: His6-tagged p300 (AA 323-423); made in house; host or cells: E. coli (pETDuet vector)
How it was run: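 The co-expressed flag-HIF1α (786-826)/His6-p300 (323-423) complex, purified from E. coli with 0.1 mM ZnSO4, was used at 300 nM final with competitor peptides for 1 h at room temperature. Buffer was 150 mM NaCl, 20 mM HEPES pH 7.4, 7.5 mM CHAPS and 1 mM DTT. Anti-Flag-K (0.5 μM) and anti-His-D2 (4 nM) were then added for 2 h, and IC50s were fitted from the TR-FRET ratio.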

CCCC[C@@H]1NC(=O)[C@H](CC(C)C)NC(=O)[C@H](C(C)C)NC(=O)[C@@](C)(NC(=O)[C@H](CCC(=O)O)NC(=O)[C@H](CC(=O)O)NC(=O)[C@@H](NC(=O)[C@H](Cc2ccccc2)NC(C)=O)[C@@H](C)CC)CCCC=CCCCC2(CCCC=CCCC[C@](C)(C(=O)N[C@@H](CCCNC(=N)N)C(=O)N[C@@H](C)C(=O)N[C@@H](CC(C)C)C(N)=O)NC(=O)[C@H]([C@@H](C)CC)NC(=O)[C@H](C(C)C)NC(=O)[C@H](CC(C)C)NC2=O)NC1=O (some centres unmarked) [SP-213]
Viability 1% FBS AVG (MTT V3-24 hr Normoxia) (μM) [1]: ++++ (≥30: ++++)
18 h Avg % max inhibition at top conc (HIF Rptr-24 hrs normoxia) (μM) [2]: + (<10: +)
EC50 [2]: > 30 µM
IC50 [3]: > 700 nM

CC[C@H](C)[C@H](NC(=O)[C@H](Cc1ccccc1)NC(C)=O)C(=O)N[C@@H](CC(=O)O)C(=O)N[C@@H](CCC(=O)O)C(=O)N[C@@H](CCC(=O)O)C(=O)N[C@H](C(=O)N[C@@H](CC(C)C)C(=O)N[C@@H](CCSC)C(=O)N[C@@]1(C)CCCC=CCCC[C@@](C)(C(=O)N[C@@H](CCSC)C(=O)N[C@@H](C)C(=O)N[C@@H](CC(C)C)C(=O)N[C@@H](CC(=O)O)C(=O)N[C@@H](CCCNC(=N)N)C(N)=O)NC(=O)[C@H]([C@@H](C)CC)NC(=O)[C@H](C(C)C)NC(=O)[C@H](CC(C)C)NC1=O)C(C)C [SP-281] (Ac-FIDEEVLM[S5]LVI[S5]MALDR-NH2; staple 9-13)
Viability 1% FBS AVG (MTT V3-24 hr Normoxia) (μM) [1]: ++++ (≥30: ++++)
18 h Avg % max inhibition at top conc (HIF Rptr-24 hrs normoxia) (μM) [2]: ++++ (≥50: ++++)
EC50 [2]: 5 to 15 µM
IC50 [3]: 400 to 700 nM

CCCC[C@H](NC(=O)[C@H](CCC(=O)O)NC(=O)[C@@H](NC(=O)[C@@H](NC(=O)[C@H](CO)NC(=O)[C@]1(C)CCCC=CCCC[C@](C)(NC(=O)[C@H](CCC(=O)O)NC(=O)[C@H](CC(=O)O)NC(=O)[C@@H](NC(=O)[C@H](Cc2ccccc2)NC(C)=O)[C@@H](C)CC)C(=O)N[C@@H](C(C)C)C(=O)N[C@@H](CC(C)C)C(=O)N[C@@H](CCCC)C(=O)N1)C(C)C)[C@@H](C)CC)C(=O)N[C@@H](C)C(=O)N[C@@H](CC(C)C)C(N)=O [SP-144] (Ac-FIDE[S5]VL[Nle][S5]SVIE[Nle]AL-NH2; staple 5-9)
Viability 1% FBS AVG (MTT V3-24 hr Normoxia) (μM) [1]: +++ (≤15 but <30: +++)
18 h Avg % max inhibition at top conc (HIF Rptr-24 hrs normoxia) (μM) [2]: ++++ (≥50: ++++)
EC50 [2]: > 30 µM
IC50 [3]: 400 to 700 nM

CCCC[C@H](NC(=O)[C@H](C)NC(=O)[C@]1(C)CCCC=CCCCCCC[C@@](C)(NC(=O)[C@H](CCC(=O)O)NC(=O)[C@H](CC(=O)O)NC(=O)[C@@H](NC(=O)[C@H](Cc2ccccc2)NC(C)=O)[C@@H](C)CC)C(=O)N[C@@H](C(C)C)C(=O)N[C@@H](CC(C)C)C(=O)N[C@@H](CCCC)C(=O)N[C@@H](CO)C(=O)N[C@@H](CC(C)C)C(=O)N[C@@H](C(C)C)C(=O)N1)C(=O)N[C@@H](C)C(=O)N[C@@H](CC(C)C)C(N)=O [SP-196] (Ac-FIDE[R8]VL[Nle]SLV[S5]A[Nle]AL-NH2; staple 5-12)
Viability 1% FBS AVG (MTT V3-24 hr Normoxia) (μM) [1]: ++++ (≥30: ++++)
18 h Avg % max inhibition at top conc (HIF Rptr-24 hrs normoxia) (μM) [2]: ++++ (≥50: ++++)
EC50 [2]: ≤ 5 µM
IC50 [3]: 200 to 400 nM

CCCC[C@@H]1NC(=O)[C@H](CC(C)C)NC(=O)[C@H](C(C)C)NC(=O)[C@@](C)(NC(=O)[C@H](CCC(=O)O)NC(=O)[C@H](CC(=O)O)NC(=O)[C@@H](NC(=O)[C@H](Cc2ccccc2)NC(C)=O)[C@@H](C)CC)CCCC=CCCC[C@@](C)(C(=O)N[C@@H](CC(C)C)C(=O)N[C@H](C(=O)N[C@H](C(=O)N[C@@H](CCC(=O)O)C(=O)N[C@@H](CCSC)C(=O)N[C@@H](C)C(=O)N[C@@H](CC(C)C)C(=O)N[C@@H](CC(=O)O)C(=O)N[C@@H](CCCNC(=N)N)C(=O)N[C@H](C(N)=O)[C@@H](C)CC)[C@@H](C)CC)C(C)C)NC1=O [SP-118] (Ac-FIDE[S5]VL[Nle][S5]LVIEMALDRI-NH2; staple 5-9)
Viability 1% FBS AVG (MTT V3-24 hr Normoxia) (μM) [1]: ++++ (≥30: ++++)
18 h Avg % max inhibition at top conc (HIF Rptr-24 hrs normoxia) (μM) [2]: +++ (≤25 but <50: +++)
EC50 [2]: 15 to 30 µM
IC50 [3]: ≤ 200 nM

CCCC[C@H](NC(=O)[C@H](Cc1ccccc1)NC(=O)[C@@H](NC(=O)[C@H](C)NC(=O)[C@H](CCC(N)=O)NC(=O)[C@H](CC(=O)O)NC(=O)[C@@H](NC(=O)[C@H](Cc1ccccc1)NC(C)=O)[C@@H](C)CC)C(C)C)C(=O)N[C@@]1(C)CCCC=CCCC[C@@](C)(C(=O)N[C@@H](Cc2c[nH]cn2)C(=O)N[C@@H](C)C(=O)N[C@@H](CC(C)C)C(=O)N[C@@H](CC(C)C)C(N)=O)NC(=O)[C@H]([C@@H](C)CC)NC(=O)[C@H](C(C)C)NC(=O)[C@H](CC(C)C)NC1=O [SP-258] (Ac-FIDQAVF[Nle][S5]LVI[S5]HALL-NH2; staple 9-13)
Viability 1% FBS AVG (MTT V3-24 hr Normoxia) (μM) [1]: ++ (≤5 but <15: ++)
18 h Avg % max inhibition at top conc (HIF Rptr-24 hrs normoxia) (μM) [2]: +++ (≤25 but <50: +++)
EC50 [2]: 5 to 15 µM
IC50 [3]: > 700 nM

CC[C@H](C)[C@H](NC(=O)[C@H](CCCNC(=N)N)NC(=O)[C@H](CC(=O)O)NC(=O)[C@H](CC(C)C)NC(=O)[C@H](C)NC(=O)[C@H](CCSC)NC(=O)[C@]1(C)CCCC=CCCC[C@](C)(NC(=O)[C@H](CCSC)NC(=O)[C@H](CC(C)C)NC(=O)[C@@H](NC(=O)[C@H](C)NC(=O)[C@H](CCC(=O)O)NC(=O)[C@H](CC(=O)O)NC(=O)[C@@H](NC(=O)[C@H](Cc2ccccc2)NC(C)=O)[C@@H](C)CC)C(C)C)C(=O)N[C@@H](CC(C)C)C(=O)N[C@@H](C(C)C)C(=O)N[C@@H]([C@@H](C)CC)C(=O)N1)C(N)=O [SP-266] (Ac-FIDEAVLM[S5]LVI[S5]MALDRI-NH2; staple 9-13)
Viability 1% FBS AVG (MTT V3-24 hr Normoxia) (μM) [1]: ++++ (≥30: ++++)
IC50 [3]: 200 to 400 nM

CCCC[C@@H]1NC(=O)[C@H](CC(C)C)NC(=O)[C@H](C(C)C)NC(=O)[C@@](C)(NC(=O)[C@H](CCC(=O)O)NC(=O)[C@H](CC(=O)O)NC(=O)[C@@H](NC(=O)[C@H](Cc2ccccc2)NC(C)=O)[C@@H](C)CC)CCCC=CCCC[C@@](C)(C(=O)N[C@@H](CC(C)C)C(=O)N[C@H](C(=O)N[C@H](C(=O)N[C@@H](CCC(=O)O)C(=O)N[C@@H](C)C(=O)N[C@@H](C)C(=O)N[C@@H](CC(C)C)C(N)=O)[C@@H](C)CC)C(C)C)NC1=O [SP-145] (Ac-FIDE[S5]VL[Nle][S5]LVIEAAL-NH2; staple 5-9)
Viability 1% FBS AVG (MTT V3-24 hr Normoxia) (μM) [1]: ++++ (≥30: ++++)
IC50 [3]: 200 to 400 nM

CCCC[C@H](NC(=O)[C@H](CCC(=O)O)NC(=O)[C@@H](NC(=O)[C@@H](NC(=O)[C@H](CC(C)C)NC(=O)[C@]1(C)CCCC=CCCC[C@](C)(NC(=O)[C@H](CCC(=O)O)NC(=O)[C@H](CC(=O)O)NC(=O)[C@@H](NC(=O)[C@H](CC(N)=O)NC(=O)[C@@H](NC(=O)[C@H](CCC(N)=O)NC(=O)[C@H](CC(=O)O)NC(=O)[C@H](CC(C)C)NC(=O)[C@]2(C)CCCC=CCCC[C@](C)(NC(=O)[C@H](CCC(=O)O)NC(=O)CNC(=O)[C@H](CCC(N)=O)NC(=O)[C@H](CC(C)C)NC(=O)[C@H](CC(C)C)NC(C)=O)C(=O)N[C@@H](CC(C)C)C(=O)N[C@@H](CC(C)C)C(=O)N[C@@H](CCCNC(=N)N)C(=O)N2)C(C)C)[C@@H](C)CC)C(=O)N[C@@H](C(C)C)C(=O)N[C@@H](CC(C)C)C(=O)N[C@@H](CCCC)C(=O)N1)C(C)C)[C@@H](C)CC)C(=O)NCC(N)=O [SP-326] (Ac-LLQGE[S5]LLR[S5]LDQVNIDE[S5]VL[Nle][S5]LVIE[Nle]G-NH2; staple 6-10, 19-23)
Viability 1% FBS AVG (MTT V3-24 hr Normoxia) (μM) [1]: ++++ (≥30: ++++)
IC50 [3]: > 700 nM

CC[C@H](C)[C@H](NC(=O)[C@H](Cc1ccccc1)NC(C)=O)C(=O)N[C@@H](CC(=O)O)C(=O)N[C@@H](CCC(=O)O)C(=O)N[C@@H](CCC(=O)O)C(=O)N[C@H](C(=O)N[C@@H](CC(C)C)C(=O)N[C@@H](CCSC)C(=O)N[C@@]1(C)CCCC=CCCC[C@@](C)(C(=O)N[C@@H](CCSC)C(=O)N[C@@H](C)C(=O)N[C@@H](CC(C)C)C(N)=O)NC(=O)[C@H]([C@@H](C)CC)NC(=O)[C@H](C(C)C)NC(=O)[C@H](CC(C)C)NC1=O)C(C)C [SP-7] (Ac-FIDEEVLM[S5]LVI[S5]MAL-NH2; staple 9-13)
Viability 1% FBS AVG (MTT V3-24 hr Normoxia) (μM) [1]: ++++ (≥30: ++++)
IC50 [3]: 400 to 700 nM
